According to US9376418B2, “Substituted pyridine spleen tyrosine kinase (SYK) inhibitors” (Merck Sharp & Dohme Corp., priority 2012, dated 2016):

What follows are compounds tested against T1, recombinant human GST-SYK (Homo sapiens, UniProt P43405) (assay: Homogeneous Time-Resolved Fluorescence (HTRF) assay for the recombinant human Syk enzyme). Conditions: HTRF assay, recombinant human GST-SYK; IC50 given as class symbols; read-out: rhSYK Activity.
T1 construct: purchased Carna Biosciences 08-176
Assay type: biochemical
Summary of the method: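 GST-hSYK ([…]) was preincubated with inhibitor (0.1% DMSO) for 10 min at room temperature in Tris-HCl pH 7.5 with tween 20 and DTT. Biotinylated peptide (250 nM), Mg (5 mM) and ATP (25 μM) were added for 45 min. The reaction was quenched with EDTA, and phosphotyrosine was read by Eu-antibody/SA-APC HTRF after 30 min.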

| Compound | IC50 |
| --- | --- |
| Cc1cc(Nc2nccc(C(F)(F)F)n2)cc(-c2ccc(N[C@@H](CO)C(=O)O)nc2)c1 [Example 7.109, N-[5-(3-methyl-5-{[4-(trifluoromethyl)pyrimidin-2-yl]amino}phenyl)pyridin-2-yl]-L-serine] | < 100 nM |
| Cc1cc(Nc2nccc(C(F)(F)F)n2)cc(-c2ccc(N3CCC[C@@H]3C(=O)O)nc2)c1 [Example 7.110, 1-[5-(3-methyl-5-{[4-(trifluoromethyl)pyrimidin-2-yl]amino}phenyl)pyridin-2-yl]-D-prolilne] | < 100 nM |
| Cc1cc(Nc2nccc(C(F)(F)F)n2)cc(-c2ccc(N[C@@H](CC(C)C)C(=O)O)nc2)c1 [Example 7.111, N-[5-(3-methyl-5-{[4-(trifluoromethyl)pyrimidin-2-yl]amino}phenyl)pyridin-2-yl]-L-leucine] | < 100 nM |
| Cc1cc(Nc2nccc(C(F)(F)F)n2)cc(-c2ccc(N[C@@H](Cc3c[nH]cn3)C(=O)O)nc2)c1 [Example 7.112, N-[5-(3-methyl-5-{[4-(trifluoromethyl)pyrimidin-2-yl]amino}phenyl)pyridin-2-yl]-L-histidine] | < 100 nM |
| Cc1cc(Nc2nccc(C(F)(F)F)n2)cc(-c2ccc(NCCCO)nc2)c1 [Example 7.113, 3-{[5-(3-methyl-5-{[4-(trifluoromethyl)pyrimidin-2-yl]amino}phenyl)pyridin-2-yl]amino}propan-1-ol] | < 100 nM |
| Cc1cc(Nc2nccc(C(F)(F)F)n2)cc(-c2ccc(NC(C)(C)C#N)nc2)c1 [Example 7.114, 2-methyl-2-{[5-(3-methyl-5-{[4-(trifluoromethyl)pyrimidin-2-yl]amino}phenyl)pyridin-2-yl]amino}propanenitrile] | < 100 nM |
| Cc1cc(Nc2nccc(C(F)(F)F)n2)cc(-c2ccc(NC(C)(C#N)C(C)(C)C)nc2)c1 (stereo not shown) [Example 7.115, 2,3,3-trimethyl-2-{[5-(3-methyl-5-{[4-(trifluoromethyl)pyrimidin-2-yl]amino}phenyl)pyridin-2-yl]amino}butanenitrile] | 100 to 1000 nM |
| Cc1cc(Nc2nccc(C(F)(F)F)n2)cc(-c2ccc(N3CCCC4(CCCCO4)C3)nc2)c1 (stereo not shown) [Example 7.116, N-{3-methyl-5-[6-(1-oxa-8-azaspiro[5.5]undec-8-yl)pyridin-3-yl]phenyl}-4-(trifluoromethyl)pyrimidin-2-amine] | 100 to 1000 nM |
| Cc1cc(Nc2nccc(C(F)(F)F)n2)cc(-c2ccc(NC(C)(C#N)CC(F)(F)F)nc2)c1 (stereo not shown) [Example 7.117, 4,4,4-trifluoro-2-methyl-2-{[5-(3-methyl-5-{[4-(trifluoromethyl)pyrimidin-2-yl]amino}phenyl)pyridin-2-yl]amino}butanenitrile] | 100 to 1000 nM |
| CCC(C)(C#N)Nc1ccc(-c2cc(C)cc(Nc3nccc(C(F)(F)F)n3)c2)cn1 (stereo not shown) [Example 7.118, 2-methyl-2-{[5-(3-methyl-5-{[4-(trifluoromethyl)pyrimidin-2-yl]amino}phenyl)pyridin-2-yl]amino}butanenitrile] | < 100 nM |
| Cc1cc(Nc2nccc(C(F)(F)F)n2)cc(-c2ccc(N3CCCC[C@H]3C(=O)O)nc2)c1 [Example 7.120, (2S)-1-[5-(3-methyl-5-{[4-(trifluoromethyl)pyrimidin-2-yl]amino}phenyl)pyridin-2-yl]piperidine-2-carboxylic acid] | < 100 nM |

Results, then the compound that gave them:

| IC50 | Compound |
| --- | --- |
| < 100 nM | Cc1cc(Nc2nccc(C(F)(F)F)n2)cc(-c2ccc(N3CCC[C@@]3(C)C(=O)O)nc2)c1 [Example 7.121, 2-methyl-1-[5-(3-methyl-5-{[4-(trifluoromethyl)pyrimidin-2-yl]amino}phenyl)pyridin-2-yl]-L-proline] |
| < 100 nM | Cc1cc(Nc2nccc(C(F)(F)F)n2)cc(-c2cnc(NC(C)(C)C(=O)O)c(C(F)(F)F)c2)c1 [Example 7.123, 2-methyl-N-[5-(3-methyl-5-{[4-(trifluoromethyl)pyrimidin-2-yl]amino}phenyl)-3-(trifluoromethyl)pyridin-2-yl]alanine] |
| < 100 nM | O=C1NCCC1Nc1ccc(-c2cccc(Nc3nccc(C(F)(F)F)n3)c2)cn1 (stereo not shown) [Example 7.124, 3-{[5-(3-{[4-(trifluoromethyl)pyrimidin-2-yl]amino}phenyl)pyridin-2-yl]amino}pyrrolidin-2-one] |
| < 100 nM | CC(C)(Nc1ccc(-c2cccc(Nc3nccc(C(F)(F)F)n3)c2)cn1)C(=O)O [Example 7.125, 2-methyl-N-[5-(3-{[4-(trifluoromethyl)pyrimidin-2-yl]amino}phenyl)pyridin-2-yl]alanine] |
| < 100 nM | O=C(O)[C@@H]1CCN1c1ccc(-c2cccc(Nc3nccc(C(F)(F)F)n3)c2)cn1 [Example 7.126, (2S)-1-[5-(3-{[4-(trifluoromethyl)pyrimidin-2-yl]amino}phenyl)pyridin-2-yl]azetidine-2-carboxylic acid] |
| < 100 nM | O=C(O)[C@@H]1CCN1c1ccc(-c2cc(F)cc(Nc3nccc(C(F)(F)F)n3)c2)cn1 [Example 7.127, (2S)-1-[5-(3-fluoro-5-{[4-(trifluoromethyl)pyrimidin-2-yl]amino}phenyl)pyridin-2-yl]azetidine-2-carboxylic acid] |
| < 100 nM | Cc1cc(Nc2nccc(C(F)(F)F)n2)cc(-c2ccc(NC3CNC(=O)C3)nc2)c1 (stereo not shown) [Example 7.128, 4-{[5-(3-methyl-5-{[4-(trifluoromethyl)pyrimidin-2-yl]amino}phenyl)pyridin-2-yl]amino}pyrrolidin-2-one] |
| < 100 nM | Cc1cc(Nc2nccc(C(F)(F)F)n2)cc(-c2ccc(NC3(C(=O)O)CC3)nc2)c1 [Example 7.129, 1-{[5-(3-methyl-5-{[4-(trifluoromethyl)pyrimidin-2-yl]amino}phenyl)pyridin-2-yl]amino}cyclopropanecarboxylic acid] |
| < 100 nM | Cc1cc(Nc2nccc(C(F)(F)F)n2)cc(-c2ccc(N3CCCCC3CC(=O)O)nc2)c1 (stereo not shown) [Example 7.132, {1-[5-(3-methyl-5-{[4-(trifluoromethyl)pyrimidin-2-yl]amino}phenyl)pyridin-2-yl]piperidin-2-yl}acetic acid] |
| < 100 nM | Cc1cc(Nc2nccc(C(F)(F)F)n2)cc(-c2ccc(N3CC(C(=O)O)C3)nc2)c1 [Example 7.133, 1-[5-(3-methyl-5-{[4-(trifluoromethyl)pyrimidin-2-yl]amino}phenyl)pyridin-2-yl]azetidine-3-carboxylic acid] |
| < 100 nM | Cc1cc(Nc2nccc(C(F)(F)F)n2)cc(-c2ccc(N3CC[C@H](O)[C@H]3C(=O)O)nc2)c1 [Example 7.134, (3S)-3-hydroxy-1-[5-(3-methyl-5-{[4-(trifluoromethyl)pyrimidin-2-yl]amino}phenyl)pyridin-2-yl]-L-proline] |
| < 100 nM | Cc1cc(Nc2nccc(C(F)(F)F)n2)cc(-c2ccc(N3CCCC(C(=O)O)C3)nc2)c1 (stereo not shown) [Example 7.135, 1-[5-(3-methyl-5-{[4-(trifluoromethyl)pyrimidin-2-yl]amino}phenyl)pyridin-2-yl]piperidine-3-carboxylic acid] |
| < 100 nM | Cc1cc(Nc2nccc(C(F)(F)F)n2)cc(-c2ccc(N3CCC(C(=O)O)CC3)nc2)c1 [Example 7.136, 1-[5-(3-methyl-5-{[4-(trifluoromethyl)pyrimidin-2-yl]amino}phenyl)pyridin-2-yl]piperidine-4-carboxylic acid] |
| < 100 nM | Cc1cc(Nc2nccc(C(F)(F)F)n2)cc(-c2ccc(N3CSCC3C(=O)O)nc2)c1 (stereo not shown) [Example 7.137, 3-[5-(3-methyl-5-{[4-(trifluoromethyl)pyrimidin-2-yl]amino}phenyl)pyridin-2-yl]-1,3-thiazolidine-4-carboxylic acid] |
